The experiment concerns the target T1, Beta-glucuronidase (Homo sapiens, UniProt P08236).
T1 sequence (P08236 whole entry): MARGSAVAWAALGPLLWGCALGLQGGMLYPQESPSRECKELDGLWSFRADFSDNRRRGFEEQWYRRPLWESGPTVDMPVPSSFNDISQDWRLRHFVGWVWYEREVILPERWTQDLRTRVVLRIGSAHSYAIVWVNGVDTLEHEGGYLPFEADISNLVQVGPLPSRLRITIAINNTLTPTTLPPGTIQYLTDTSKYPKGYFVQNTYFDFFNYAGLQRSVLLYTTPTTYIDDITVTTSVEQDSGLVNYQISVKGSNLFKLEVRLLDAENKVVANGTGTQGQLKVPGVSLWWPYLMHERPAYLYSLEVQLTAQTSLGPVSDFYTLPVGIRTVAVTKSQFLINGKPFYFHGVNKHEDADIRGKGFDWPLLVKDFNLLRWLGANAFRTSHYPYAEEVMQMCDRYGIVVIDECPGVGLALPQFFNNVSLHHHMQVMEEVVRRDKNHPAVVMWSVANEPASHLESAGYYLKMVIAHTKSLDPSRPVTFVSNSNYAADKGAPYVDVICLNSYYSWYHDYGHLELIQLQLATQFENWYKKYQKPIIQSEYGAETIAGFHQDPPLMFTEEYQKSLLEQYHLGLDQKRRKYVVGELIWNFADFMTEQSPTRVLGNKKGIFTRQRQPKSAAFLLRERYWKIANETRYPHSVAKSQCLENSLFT
The experiment is described as follows: β-Glucuronidase Assay.

The values that follow come from BindingDB's records for doi:10.7270/Q28051GP (Universiti Teknologi Mara, 2017).

The IC50 is the concentration needed to halve the response being measured. Read a high IC50 as lower potency.

Description: β-glucuronidase activity was determined in accordance to method used by Taha et al. [Taha et al., Bioorg. […] 250 μL was the volume of total reaction. Reaction mixture containing 5 μL of test compound solution, 185 μL of 0.1 M acetate buffer and 10 μL of enzyme solution were incubated for 30 min at 37 °C. […] To avoid precipitation, compound concentration was decreased and the volume of reaction was increased (200 μL). Precipitation probability was less thus addition of detergents was not needed.

On to `O=C(N/N=C/c1ccccc1O)c1cc2cc(Cl)ccc2[nH]1` [(E)-5-chloro-N'-(2-hydroxybenzylidene)-1H-indole-2-carbohydrazide (26)], for which the IC50 was 25.2 µM. Take `O=C(N/N=C/c1ccc(O)c(O)c1)c1cc2cc(Cl)ccc2[nH]1` [(E)-5-chloro-N'-(3,4-dihydroxybenzylidene)-1H-indole-2-carbohydrazide (24)]: half-maximal inhibition (IC50) was put at 14.6 µM.

`O=C(N/N=C/c1ccncc1)c1cc2cc(Cl)ccc2[nH]1` [(E)-5-chloro-N'-(pyridin-4-ylmethylene)-1H-indole-2-carbohydrazide (27)] gave a 50% inhibitory concentration (IC50) of 42.4 µM. Regarding `O=C(N/N=C/c1cccnc1)c1cc2cc(Cl)ccc2[nH]1` [(E)-5-chloro-N'-(pyridin-3-ylmethylene)-1H-indole-2-carbohydrazide (18)], half-maximal inhibition (IC50) required 44.5 µM. For `COc1ccc(O)c(/C=N/NC(=O)c2cc3cc(Cl)ccc3[nH]2)c1` [(E)-5-chloro-N'-(2-hydroxy-5-methoxybenzylidene)-1H-indole-2-carbohydrazide (6)], the 50% inhibitory concentration (IC50) worked out at 24.3 µM.

In the case of `O=C(N/N=C/c1ccc(F)c(Br)c1)c1cc2cc(Cl)ccc2[nH]1` [(E)-N'-(3-bromo-4-fluorobenzylidene)-5-chloro-1H-indole-2-carbohydrazide (33)], half-maximal inhibition (IC50) required 14.4 µM. With `O=C(N/N=C/c1cc(O)ccc1O)c1cc2cc(Cl)ccc2[nH]1` [(E)-5-chloro-N'-(2,5-dihydroxybenzylidene)-1H-indole-2-carbohydrazide (23)], 7.5 µM corresponded to half-maximal inhibition (IC50). To `COC(=O)c1ccc(/C=N/NC(=O)c2cc3cc(Cl)ccc3[nH]2)cc1` [Methyl (E)-4-((2-(5-chloro-1H-indole-2-carbonyl)hydrazono)methyl)benzoate (15)] belongs 22.6 µM.

Turning to `O=C(N/N=C/c1ccc(Cl)cc1)c1cc2cc(Cl)ccc2[nH]1` [(E)-N'-(4-chlorobenzylidene)-5-chloro-1H-indole-2-carbohydrazide (34)], the 50% inhibitory concentration (IC50) came to 37.2 µM. Compared with the last compound, the IC50 is about 1.6-fold higher.

Compound `COc1ccc(/C=N/NC(=O)c2cc3cc(Cl)ccc3[nH]2)c(O)c1` [(E)-5-chloro-N'-(2-hydroxy-4-methoxybenzylidene)-1H-indole-2-carbohydrazide (16)] yielded an IC50 of 21.5 µM. `O=C(N/N=C/c1cccc(O)c1O)c1cc2cc(Cl)ccc2[nH]1` [(E)-5-chloro-N'-(2,3-dihydroxybenzylidene)-1H-indole-2-carbohydrazide (19)] yielded a concentration for half-maximal inhibition (IC50) of 13.4 µM.

The compound `O=C(N/N=C/c1ccccn1)c1cc2cc(Cl)ccc2[nH]1` [(E)-5-chloro-N'-(pyridin-2-ylmethylene)-1H-indole-2-carbohydrazide (17)] gave an IC50 of 22.8 µM.

Turning to `Cc1ccc(/C=N/NC(=O)c2cc3cc(Cl)ccc3[nH]2)cc1` [(E)-5-chloro-N'-(4-methylbenzylidene)-1H-indole-2-carbohydrazide (1)], the IC50 is 43.5 µM. Compound `COc1ccc(/C=N/NC(=O)c2cc3cc(Cl)ccc3[nH]2)cc1` [(E)-5-chloro-N'-(4-methoxybenzylidene)-1H-indole-2-carbohydrazide (13)] returned a concentration for half-maximal inhibition (IC50) of 53.6 µM. Compound `COc1ccc(/C=N/NC(=O)c2cc3cc(Cl)ccc3[nH]2)cc1O` [(E)-5-chloro-N'-(3-hydroxy-4-methoxybenzylidene)-1H-indole-2-carbohydrazide (5)] registered an IC50 of 22.5 µM.
